Measurements reported in PMC6176987, “Correction of cognitive deficits in mouse models of Down syndrome by a pharmacological inhibitor of DYRK1A” (Disease Models & Mechanisms, 2018).

How the values were obtained:
CLK3 = CLK3 (Mus musculus, UniProt O35492); assay: Recombinant protein kinase assay, CLK3; format: biochemical
DYRK1A = target: T1, DYRK1A (Mus musculus, UniProt Q61214); assay: Brain DYRK1A catalytic activity after treatment, Tg(Dyrk1a) mice; format: in vivo
T1 construct: DYRK1A was purified from brain extracts by immunoprecipitation; from tissue; host or cells: mouse brain (wt, Tg(Dyrk1a), Ts65Dn)
Experimental: Protein kinase assays to measure the catalytic activity of DYRK1A in the brains of the animals treated with or without drugs were performed as follows: frozen half brains were homogenized in lysis buffer (1.2 ml/half brain) using Precellys® homogenizer tubes. After centrifugation at 2800 g for 2×15 s, 1 mg brain extract was incubated with 2 µg DYRK1A (H00001859 M01, Interchim) or GSK3-β (MBS8508391, Emelca Bioscience, France) antibodies at 4°C for 1 h under gentle rotation. Then, 20 µl protein G agarose beads (Thermo Fisher Scientific, France), previously washed three times with bead buffer (50 mM Tris pH 7.4, 5 mM NaF, 250 mM NaCl, 5 mM EDTA, 5 mM EGTA, 0.1% Nonidet P-40 and protease inhibitor cocktail from Roche, France), were added to the mix and gently rotated at 4°C for 30 min. After a 1 min spin at 10,000 g and removal of the supernatant, the pelleted immune complexes were washed three times with bead buffer, and a last time with Buffer C (60 mM β-glycerophosphate, 30 mM p-nitrophenolphosphate, 25 mM Mops pH 7.2, 5 mM EGTA, 15 mM MgCl2, 2 mM dithiothreitol, 0.1 mM sodium orthovanadate, 1 mM phenylphosphate, protease inhibitor cocktail). DYRK1A or GSK-3 immobilized on beads were assayed in buffer C as described in the Supplementary Materials and Methods with Woodtide ([…]) (1.5 µg/assay) or GSK3-tide ([…]pSED-EEE, where pS stands for phosphorylated serine) as substrates.

[1] = system: Tg(Dyrk1a) mice brain phosphoproteins; assay: Brain phosphoproteomic analysis, Tg(Dyrk1a) mice; format: in vivo, mouse; conditions: 20 mg/kg daily i.p. 19 days
Source text: All tissue samples were processed for phosphoproteomics analysis based on the enrichment and separation of proteotypic phosphopeptides with HILIC (see Materials and Methods). In Tg(Dyrk1a) and Ts65Dn mice, the hippocampus, cortex and cerebellum yielded 1384, 1523 and 2004 peptides, respectively, corresponding to 886, 948 and 1229 proteins (Table 1; Tables S1-S13).
Only biological processes common to the three brain regions and both models are presented (complete biological processes are listed in Tables S11-S13).
DYRK1A substrates and their respective phosphorylation sites were identified in the phosphoproteome based on the DYRK1A phosphorylation consensus sequence R-P-x(1,3)-S/T-P ([Himpel et al., 2000]). […] Biological process enrichments of each cluster were assessed by using ToppCluster web server application. […]
Protein Identification and Quantification. […]
Precursor Mass Tolerance 10 ppm, Fragment Mass Tolerance 20 mmu, Dynamic Modifications were Oxidation of M (+15.995 Da), Deamidation of N, Q (+0.984 Da), Phosphorylation of S (+79.966 Da) and Static Modifications were iTRAQ8plex at any N-Terminus, K, Y (+304.205 Da) and Methylthio at C (+45.988 Da). […] The Reporter Ion Quantifier node included a custom iTRAQ 8plex (Thermo Scientific Instruments) Quantification Method, integration window tolerance of 10 ppm with Most Confident Centroid. […]

CLK3, sequence (O35492 whole entry): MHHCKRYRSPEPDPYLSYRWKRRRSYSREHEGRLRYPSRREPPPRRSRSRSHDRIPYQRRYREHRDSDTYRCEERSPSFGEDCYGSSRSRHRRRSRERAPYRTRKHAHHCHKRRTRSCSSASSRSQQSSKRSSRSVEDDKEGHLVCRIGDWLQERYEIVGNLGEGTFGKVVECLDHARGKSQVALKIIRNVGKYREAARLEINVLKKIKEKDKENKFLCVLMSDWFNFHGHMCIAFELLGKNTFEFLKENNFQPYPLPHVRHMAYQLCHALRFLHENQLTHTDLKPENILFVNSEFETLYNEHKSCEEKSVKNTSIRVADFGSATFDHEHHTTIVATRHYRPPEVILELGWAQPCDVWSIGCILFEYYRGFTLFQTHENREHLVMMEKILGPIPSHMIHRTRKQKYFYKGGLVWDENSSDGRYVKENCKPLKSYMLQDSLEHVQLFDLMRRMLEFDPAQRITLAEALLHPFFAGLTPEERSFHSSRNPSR

## O=C1NC(Nc2ccccc2)=N/C1=C\c1ccc2c(c1)OCO2 [L41]
CLK3
  IC50: 1200 nM
DYRK1A; 24 h after the last treatment of 19 days
  Tg(Dyrk1a) brain DYRK1A activity: normalized to wt levels
DYRK1A; 48 h after the last treatment of 19 days
  Tg(Dyrk1a) brain DYRK1A activity: no more effects
DYRK1A; 5 days of treatment
  DYRK1A inhibition in Tg(Dyrk1a) mice brains: not significant
DYRK1A; 12 days of treatment
  Tg(Dyrk1a) brain DYRK1A activity: normalized
DYRK1A; 19 days daily i.p., normalized to GSK-3α/β activity
  Reduction of brain DYRK1A activity: ~30%
DYRK1A; 19 days of treatment
  Tg(Dyrk1a) brain DYRK1A activity: normalized
[1]
  SYN1 Ser551 phosphorylation following treatment: dephosphorylated
